Experimental data taken from PMC12557380, “Optimization of 2,8-Diaryl-1,5-naphthyridines as Plasmodium falciparum Phosphatidylinositol 4‑Kinase Inhibitors with Improved ADME Profiles and In Vivo Efficacy” (Journal of Medicinal Chemistry, 2025).
Values after ≈ are worked out from the molar mass of the structure shown. Read-outs that look alike come from different tables or passages of the source.

Assays:
PfDd2 = conditions: read-out: PfDd2 IC50; reported inhibitors, Figure 1; cited from earlier work
[1] = system: panel of the drug-resistant strains of P. falciparum; conditions: Figure 1, read-out: PfIC50; cited from earlier work
HsPI4K = conditions: reported inhibitors, Figure 1; cited from earlier work
P. vivax PI4Kβ (PvPI4K) = conditions: cited from earlier work
[2] = system: Chinese hamster ovary cells; test: Cytotoxicity, MTT assay, CHO; assay type: cell-based; conditions: Cricetulus griseus, read-out: CHO IC50
PfNF54 = conditions: cited from earlier work
HepG2 cells = test: Cytotoxicity, MTT assay, HepG2; assay type: cell-based
Pf3D7 = conditions: read-out: Pf3D7 IC50; cited from earlier work
[3] = system: P. falciparum NF54 (PfNF54) parasites; test: In vitro antiplasmodial asexual blood stage activity, pLDH assay, NF54; assay type: cell-based, Plasmodium falciparum; conditions: Plasmodium falciparum
[4] = system: P. falciparum K1 (PfK1) strain; test: In vitro antiplasmodial asexual blood stage activity, pLDH assay, K1; assay type: cell-based; conditions: Plasmodium falciparum
[5] = system: L6 rat myoblast cell line; test: Cytotoxicity, L6; assay type: cell-based; conditions: read-out: L6 IC50
in vitro [6] = conditions: mouse, pH 7.4
physchem [7] = conditions: 25 °C, pH 6.5, aqueous buffer, thermodynamic from solid
[8] = for in vivo mouse CLb: total body clearance from whole blood, iv 3 mg/kg; for in vivo mouse CLu: unbound blood clearance from CLb and plasma protein binding
in vitro [9] = conditions: human, pH 7.4
physchem [10] = conditions: n-octanol/phosphate buffer (1:1), pH 7.4
in vivo = conditions: male, Balb/C, mouse, po, 10 mg/kg
in vitro [11] = conditions: human, Caco-2
[12] = system: P. falciparum PI4K cKD line; test: microbe, parasite or virus in culture; conditions: Plasmodium falciparum
HsMAP4K4 = HsMAP4K4 (Homo sapiens, UniProt O95819); test: Human kinase screening, ADP-Glo, MAP4K4; assay type: biochemical; conditions: IC50/PvPI4K IC50
HsPI3Kα = HsPI3Kα (Homo sapiens, UniProt P42336); test: Human lipid kinase screening, ADP-Glo, PI3Kα; assay type: biochemical; conditions: IC50/PvPI4K IC50
HsMINK1 = HsMINK1 (Homo sapiens, UniProt Q8N4C8); test: Human kinase screening, ADP-Glo, MINK1; assay type: biochemical; conditions: IC50/PvPI4K IC50
HsPI4Kβ = HsPI4Kβ (Homo sapiens, UniProt Q9UBF8); test: Human lipid kinase screening, ADP-Glo, PI4Kβ; assay type: biochemical; conditions: IC50/PvPI4K IC50
[13] = system: PI4K S743F + H1484Y and PI4K S1320L + L1418F mutant lines; conditions: 72 h, SYBR green I
[14] = Homo sapiens, HepG2, read-out: HepG2 IC50
[15] = NF54, 72 h, read-out: Pf ABS IC50 NF54
[16] = K1, 72 h, read-out: Pf ABS IC50 K1
[17] = NF54, 72 h, pLDH assay, 72 h, read-out: Pf ABS IC50 NF54
[18] = read-out: IC50 Mean + SD, +aTc, mean of N=3, +aTc
[19] = read-out: IC50 Mean + SD, no aTc, mean of N=3, no aTc
[20] = read-out: IC50 for PfPI4K, +aTc, N=1, +aTc
[21] = read-out: IC50 for PfPI4K, +aTc, N=2, +aTc
[22] = read-out: IC50 for PfPI4K, +aTc, N=3, +aTc
[23] = read-out: IC50 for PfPI4K, no aTc, N=1, no aTc (knockdown)
[24] = read-out: IC50 for PfPI4K, no aTc, N=2, no aTc (knockdown)
[25] = read-out: IC50 for PfPI4K, no aTc, N=3, no aTc (knockdown)
[26] = NF54, mean, supplement, read-out: PfNF54 IC50
[27] = K1, pLDH assay, 72 h, read-out: Pf ABS IC50 K1

HsMAP4K4, sequence (O95819 whole entry): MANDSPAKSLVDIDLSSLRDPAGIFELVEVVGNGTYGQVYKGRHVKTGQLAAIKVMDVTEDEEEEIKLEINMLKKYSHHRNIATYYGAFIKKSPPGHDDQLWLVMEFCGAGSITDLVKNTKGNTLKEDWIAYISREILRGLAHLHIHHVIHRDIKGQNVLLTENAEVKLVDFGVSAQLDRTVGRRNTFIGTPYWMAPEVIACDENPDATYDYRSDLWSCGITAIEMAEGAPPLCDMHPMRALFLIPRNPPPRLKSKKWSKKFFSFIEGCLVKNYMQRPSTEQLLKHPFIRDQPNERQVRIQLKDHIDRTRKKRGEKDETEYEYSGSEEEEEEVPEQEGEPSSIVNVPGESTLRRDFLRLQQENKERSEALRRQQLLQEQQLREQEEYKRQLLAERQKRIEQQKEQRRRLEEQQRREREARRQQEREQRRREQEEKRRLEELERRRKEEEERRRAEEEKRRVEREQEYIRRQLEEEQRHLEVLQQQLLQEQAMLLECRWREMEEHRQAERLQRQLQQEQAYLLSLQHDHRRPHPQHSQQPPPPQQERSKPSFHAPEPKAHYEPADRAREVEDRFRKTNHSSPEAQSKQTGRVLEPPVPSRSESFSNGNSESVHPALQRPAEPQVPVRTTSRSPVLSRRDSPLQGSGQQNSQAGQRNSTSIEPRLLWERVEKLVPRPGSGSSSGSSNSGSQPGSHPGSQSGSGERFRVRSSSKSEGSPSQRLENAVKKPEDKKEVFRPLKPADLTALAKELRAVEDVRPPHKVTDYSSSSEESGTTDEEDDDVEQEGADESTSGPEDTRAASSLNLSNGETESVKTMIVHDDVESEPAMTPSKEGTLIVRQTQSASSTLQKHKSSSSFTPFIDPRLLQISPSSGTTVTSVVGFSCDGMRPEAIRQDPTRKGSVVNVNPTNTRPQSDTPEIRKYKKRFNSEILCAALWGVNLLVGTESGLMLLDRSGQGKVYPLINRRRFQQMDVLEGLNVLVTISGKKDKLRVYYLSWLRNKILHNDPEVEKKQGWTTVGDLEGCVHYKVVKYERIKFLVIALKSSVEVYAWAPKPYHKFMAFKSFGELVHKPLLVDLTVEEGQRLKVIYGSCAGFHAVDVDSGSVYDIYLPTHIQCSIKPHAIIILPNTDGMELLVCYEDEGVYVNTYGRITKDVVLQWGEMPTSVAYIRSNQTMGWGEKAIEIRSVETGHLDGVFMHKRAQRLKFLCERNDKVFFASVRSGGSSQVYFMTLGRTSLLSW
HsMINK1, sequence (Q8N4C8 whole entry): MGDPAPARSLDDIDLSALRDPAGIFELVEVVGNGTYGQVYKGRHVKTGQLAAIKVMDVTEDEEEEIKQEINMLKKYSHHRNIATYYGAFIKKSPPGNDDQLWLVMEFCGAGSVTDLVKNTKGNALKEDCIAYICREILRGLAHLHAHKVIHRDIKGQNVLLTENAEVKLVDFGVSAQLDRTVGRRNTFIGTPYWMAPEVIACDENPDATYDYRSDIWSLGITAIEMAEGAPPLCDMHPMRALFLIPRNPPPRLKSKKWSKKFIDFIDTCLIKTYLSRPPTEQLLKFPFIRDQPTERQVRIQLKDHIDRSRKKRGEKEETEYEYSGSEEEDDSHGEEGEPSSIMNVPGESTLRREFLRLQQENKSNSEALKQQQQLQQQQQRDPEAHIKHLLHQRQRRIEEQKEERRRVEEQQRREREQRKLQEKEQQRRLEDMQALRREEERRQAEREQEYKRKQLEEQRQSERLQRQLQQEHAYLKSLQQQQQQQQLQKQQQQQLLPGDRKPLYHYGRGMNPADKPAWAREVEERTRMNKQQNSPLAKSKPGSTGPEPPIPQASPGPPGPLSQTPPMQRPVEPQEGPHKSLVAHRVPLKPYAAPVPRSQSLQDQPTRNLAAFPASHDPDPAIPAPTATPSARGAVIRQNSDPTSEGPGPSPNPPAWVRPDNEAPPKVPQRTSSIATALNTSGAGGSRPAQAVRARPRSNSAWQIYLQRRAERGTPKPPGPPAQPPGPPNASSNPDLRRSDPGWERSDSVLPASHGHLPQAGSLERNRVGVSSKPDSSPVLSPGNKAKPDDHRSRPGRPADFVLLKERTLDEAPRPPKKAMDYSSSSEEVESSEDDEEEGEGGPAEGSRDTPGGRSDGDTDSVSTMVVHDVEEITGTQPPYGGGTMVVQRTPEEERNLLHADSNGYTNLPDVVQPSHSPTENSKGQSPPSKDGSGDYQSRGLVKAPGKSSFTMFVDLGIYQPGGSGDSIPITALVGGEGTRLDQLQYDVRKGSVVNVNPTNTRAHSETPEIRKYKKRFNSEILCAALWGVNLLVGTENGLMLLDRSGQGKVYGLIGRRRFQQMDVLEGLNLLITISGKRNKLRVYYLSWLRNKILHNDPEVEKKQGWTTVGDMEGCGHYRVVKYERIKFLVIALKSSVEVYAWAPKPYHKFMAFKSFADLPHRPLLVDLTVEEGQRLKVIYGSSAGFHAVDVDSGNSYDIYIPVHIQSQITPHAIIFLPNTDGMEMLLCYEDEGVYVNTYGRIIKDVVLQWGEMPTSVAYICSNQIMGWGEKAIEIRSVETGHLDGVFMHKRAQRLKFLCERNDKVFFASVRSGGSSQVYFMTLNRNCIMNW
HsPI3Kα, sequence (P42336 whole entry): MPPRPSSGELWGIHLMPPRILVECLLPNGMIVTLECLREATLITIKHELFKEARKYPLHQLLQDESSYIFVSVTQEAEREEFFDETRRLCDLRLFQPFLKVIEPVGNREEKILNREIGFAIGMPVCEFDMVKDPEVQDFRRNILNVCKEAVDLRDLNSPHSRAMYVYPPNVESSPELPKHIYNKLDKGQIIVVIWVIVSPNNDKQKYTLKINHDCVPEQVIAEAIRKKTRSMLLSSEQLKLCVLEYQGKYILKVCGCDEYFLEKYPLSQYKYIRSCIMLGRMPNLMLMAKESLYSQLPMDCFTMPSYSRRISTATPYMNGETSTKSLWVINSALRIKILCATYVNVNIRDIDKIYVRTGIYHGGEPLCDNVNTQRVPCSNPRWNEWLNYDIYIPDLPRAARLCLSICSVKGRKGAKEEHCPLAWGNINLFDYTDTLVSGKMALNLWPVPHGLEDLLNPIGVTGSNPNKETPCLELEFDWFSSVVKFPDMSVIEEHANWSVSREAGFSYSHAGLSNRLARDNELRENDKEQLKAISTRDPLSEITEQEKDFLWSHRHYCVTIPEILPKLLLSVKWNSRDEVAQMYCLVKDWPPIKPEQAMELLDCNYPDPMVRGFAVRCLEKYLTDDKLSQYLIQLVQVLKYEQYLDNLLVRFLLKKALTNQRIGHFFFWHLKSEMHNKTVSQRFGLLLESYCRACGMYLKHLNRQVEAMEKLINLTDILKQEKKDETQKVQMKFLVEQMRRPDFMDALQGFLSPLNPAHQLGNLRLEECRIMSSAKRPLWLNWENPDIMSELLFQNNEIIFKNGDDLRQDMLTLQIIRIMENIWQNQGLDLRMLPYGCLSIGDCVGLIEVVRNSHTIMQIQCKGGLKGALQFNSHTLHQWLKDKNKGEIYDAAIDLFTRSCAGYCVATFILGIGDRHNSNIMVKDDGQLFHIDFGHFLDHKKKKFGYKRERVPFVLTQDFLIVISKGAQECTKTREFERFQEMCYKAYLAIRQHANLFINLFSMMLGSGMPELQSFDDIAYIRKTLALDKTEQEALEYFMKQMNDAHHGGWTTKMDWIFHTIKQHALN
HsPI3Kα, sequence (P27986 whole entry partner): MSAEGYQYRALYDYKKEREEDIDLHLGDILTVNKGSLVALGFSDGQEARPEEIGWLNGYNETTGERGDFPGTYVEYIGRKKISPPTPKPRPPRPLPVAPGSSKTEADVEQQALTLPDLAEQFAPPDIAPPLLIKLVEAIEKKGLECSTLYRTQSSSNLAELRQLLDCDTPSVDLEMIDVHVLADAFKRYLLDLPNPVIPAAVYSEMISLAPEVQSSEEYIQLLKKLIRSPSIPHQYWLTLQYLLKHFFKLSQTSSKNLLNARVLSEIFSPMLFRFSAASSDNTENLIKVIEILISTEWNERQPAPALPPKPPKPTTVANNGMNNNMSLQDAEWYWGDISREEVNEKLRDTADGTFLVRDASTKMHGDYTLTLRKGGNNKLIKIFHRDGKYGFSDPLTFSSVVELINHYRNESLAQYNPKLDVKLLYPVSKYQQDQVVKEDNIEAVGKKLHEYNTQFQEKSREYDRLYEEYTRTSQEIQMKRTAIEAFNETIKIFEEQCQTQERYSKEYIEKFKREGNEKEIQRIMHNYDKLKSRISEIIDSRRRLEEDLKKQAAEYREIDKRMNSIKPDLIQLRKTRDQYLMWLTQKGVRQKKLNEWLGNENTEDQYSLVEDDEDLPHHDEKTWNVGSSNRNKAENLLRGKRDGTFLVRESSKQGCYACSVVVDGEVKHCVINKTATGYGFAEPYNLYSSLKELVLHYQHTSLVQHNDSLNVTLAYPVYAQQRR

Compound | IC50 [5] | CLint scaled at 1 µM (in vitro [6]; microsomes) | CLint scaled at 1 µM (in vitro [6]; mouse liver microsomes) | IC50 ([2]; one biological replicate) | in vivo mouse CLb [8] | in vivo mouse CLu [8] | CLint scaled at 1 µM (in vitro [9]; microsomes) | CLint scaled at 1 µM (in vitro [9]; pooled human liver microsomes) | logD at 3 h (physchem [10]) | IC50 [3, 17] | bioavailability (in vivo) | Papp A→B (in vitro [11]) | solubility thermodynamic at 20 h (physchem [7]; aqueous solution) | IC50 [3, 26] | further results
COc1ccc2c3c([nH]c2c1)[C@H](CO)N(C(C)=O)CC31CCN(C(=O)Nc2ccccc2F)CC1 [BRD73842] |  |  |  |  |  |  |  |  |  |  |  |  |  |  | IC50 (PfDd2): 69 nM
CNC(=O)c1cncc(-c2cnc(Cl)c(NS(=O)(=O)c3ccccc3)c2)c1 [CHMFL-PI4K-127, 6′-Chloro-N-Methyl-5′-(Phenylsulfonamido)-[3,3′-Bipyridine]-5-Carboxamide] |  |  |  |  |  |  |  |  |  |  |  |  |  |  | IC50 [1]: 24 to 47 nM; IC50 (HsPI4K): 0.43 µM; IC50 (P. vivax PI4Kβ (PvPI4K); reported inhibitors, Figure 1): 0.9 nM
NS(=O)(=O)c1cccc(-c2ccc3nccc(-c4ccnc(C(F)(F)F)c4)c3n2)c1 [Compound 1] | 35 µM |  |  |  |  |  |  |  |  |  |  |  |  |  | IC50 [2]: 6 µM; IC50 (PfNF54): 63 nM; IC50 (HepG2 cells; [14]): 48 µM; IC50 (Pf3D7): 140 nM; IC50 [3, 15]: 63 nM; IC50 [4, 16]: 86 nM; IC50 (P. vivax PI4Kβ (PvPI4K)): 6 nM
Cn1ccc(-c2ccc3nccc(-c4cccc(S(C)(=O)=O)c4)c3n2)cc1=O [Compound 19, 1-Methyl-4-[8-(3-methylsulfonylphenyl)-1,5-naphthyridin-2-yl]pyridin-2-one] |  | < 45.7 mL/min/kg | < 67.2 mL/min/kg | 47 µM | 102 mL/min/kg | 300 mL/min/kg | < 13.4 mL/min/kg | < 19.7 mL/min/kg | 1.46 | 16 nM | 27% | 14 ×10⁻⁶ cm/s |  |  | solubility thermodynamic at 20 h (physchem [7]): 40 µM (≈ 15.7 µg/mL); IC50 [12, 18]: 36 nM; IC50 [12, 19]: 4.3 nM; IC50 [12, 20]: 48.9 nM; IC50 [12, 21]: 20.2 nM; IC50 [12, 22]: 39.2 nM; IC50 [12, 23]: 5.2 nM; IC50 [12, 24]: 2.5 nM; IC50 [12, 25]: 5.1 nM
CS(=O)(=O)c1cccc(-c2ccnc3ccc(N4CCC(O)CC4)nc23)c1 [Compound 21, 1-[8-(3-Methylsulfonylphenyl)-1,5-naphthyridin-2-yl]piperidin-4-ol] | 8 µM | < 45.7 mL/min/kg | < 60.1 mL/min/kg | 49 µM | 80 mL/min/kg | 533 mL/min/kg | < 13.4 mL/min/kg | < 17.6 mL/min/kg | 2.27 | 32 nM | 37% | 18 ×10⁻⁶ cm/s | 150 µM (≈ 57.5 µg/mL) |  | IC50 (HepG2 cells; Homo sapiens, HepG2; read-out: HepG2 IC50): > 50 µM; IC50 [12, 18]: 84.5 nM; IC50 [12, 19]: 14 nM; IC50 [12, 20]: 131 nM; IC50 [12, 21]: 68.9 nM; IC50 [12, 22]: 53.6 nM; IC50 [12, 23]: 21.7 nM; IC50 [12, 24]: 10.5 nM; IC50 [12, 25]: 9.7 nM
CS(=O)(=O)c1cccc(-c2ccnc3ccc(N4CCCC(C(N)=O)C4)nc23)c1 (stereo not shown) [Compound 22, 1-[8-(3-Methylsulfonylphenyl)-1,5-naphthyridin-2-yl]piperidine-3-carboxamide] |  |  |  | > 50 µM |  |  |  |  |  | 67 nM |  |  |  | 67.2 nM | solubility thermodynamic at 20 h (physchem [7]): 10 µM (≈ 4.1 µg/mL); HsMAP4K4 SI (HsMAP4K4): > 4000; HsPI3Kα SI (HsPI3Kα): 60; HsMINK1 SI (HsMINK1): > 4000; HsPI4Kβ SI (HsPI4Kβ): 56
Cn1ccc(-c2ccc3nccc(-c4ccc(C(C)(C)O)nc4)c3n2)cc1=O [Compound 24, 4-[8-[6-(2-Hydroxypropan-2-yl)pyridin-3-yl]-1,5-naphthyridin-2-yl]-1-methylpyridin-2-one] |  | < 45.7 mL/min/kg | < 59.4 mL/min/kg | 12 µM | 110 mL/min/kg | 379 mL/min/kg | < 13.4 mL/min/kg | < 17.4 mL/min/kg | 1.98 | 36 nM | 10% |  | 175 µM (≈ 65.2 µg/mL) | 35.9 nM | IC50 ([4]; K1, mean, supplement, read-out: PfK1 IC50): 107 nM; IC50 [4, 27]: 110 nM
CNC(=O)Cc1cccc(-c2ccc3nccc(-c4ccc(C(C)(C)O)nc4)c3n2)c1 [Compound 27, 2-[3-[8-[6-(2-Hydroxypropan-2-yl)pyridin-3-yl]-1,5-naphthyridin-2-yl]phenyl]-N-methylacetamide] | 38 µM |  |  |  |  |  |  |  |  |  |  |  |  |  | IC50 [2]: 31 µM; IC50 (HepG2 cells; [14]): 6 µM; IC50 [3, 15]: 51 nM; IC50 ([3]; NF54, read-out: PfNF54 IC50): 50.7 nM; IC50 ([3]; NF54, read-out: free IC50): 40 nM; IC50 [4, 16]: 81 nM; IC50 ([4]; K1, read-out: PfK1 IC50): 81.2 nM
CS(=O)(=O)c1cccc(-c2ccc3nccc(-c4ccc(C(=O)N5CCC(O)C5)cc4)c3n2)c1 (stereo not shown) [Compound 37, (3-Hydroxypyrrolidin-1-yl)-[4-[6-(3-methylsulfonylphenyl)-1,5-naphthyridin-4-yl]phenyl]methanone] |  | < 45.7 mL/min/kg | < 93.2 mL/min/kg | 24 µM | 181 mL/min/kg | 362 mL/min/kg | < 13.4 mL/min/kg | < 27.3 mL/min/kg | 1.92 | 32 nM | 11% | 1.5 ×10⁻⁶ cm/s | 60 µM (≈ 28.4 µg/mL) | 32.2 nM | IC50 [4, 27]: 96 nM; IC50 shift against PI4K mutant lines relative to parent Dd2 [13]: showed IC50 shifts; efflux ratio (in vitro [11]): 32
CNC(=O)c1ccc(-c2cnc3cnc(C(=O)N(C)c4ccc(Cl)cc4)cn23)cc1 [KDU691] |  |  |  |  |  |  |  |  |  |  |  |  |  |  | IC50 [1]: 27 to 70 nM; IC50 (HsPI4K): 7.9 µM; IC50 (P. vivax PI4Kβ (PvPI4K)): 1.6 nM
